Source: patent publication US20260132123A1, “ABAD INHIBITOR COMPOUNDS” (UNIVERSITY COURT OF THE UNIVERSITY OF ST ANDREWS, priority 2021, published 2026)

What was measured:
17β-HSD10 [1] = target: T1, 17β-HSD10 (Homo sapiens, UniProt Q99714); experiment: 17β-HSD10 (ABAD) enzyme inhibition assay, NADH oxidation read at 340 nm (primary screen and dose response); type: biochemical; conditions: for EC50 / Max. Effect (%) / Hill Slope / Max. Fit / Min. Fit: recombinant 17βHSD10 enzyme assay; for Hill Slope / Max. Fit / Min. Fit: curve fit
T1 construct: Histev (histidine tag with TEV site) (N, cleaved yes); made in house; host or cells: E. coli BL21-CodonPlus
T1 sequence (Q99714 1-261): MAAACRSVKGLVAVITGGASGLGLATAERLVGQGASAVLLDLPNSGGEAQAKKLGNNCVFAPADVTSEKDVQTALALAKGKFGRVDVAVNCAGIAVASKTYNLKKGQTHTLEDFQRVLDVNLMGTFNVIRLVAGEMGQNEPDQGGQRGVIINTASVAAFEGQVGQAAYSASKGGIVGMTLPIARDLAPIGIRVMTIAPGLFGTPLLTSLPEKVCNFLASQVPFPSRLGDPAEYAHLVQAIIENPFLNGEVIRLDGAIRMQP
Summary of the method: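 Tag-cleaved recombinant human 17β-HSD10 (2.5 nM) preincubated 15 min with compound in Tris pH 7.4, NaCl, DTT, Tween, BSA (catalase in some runs), then 100 μM acetoacetyl-CoA and NADH added. NADH oxidation by A340 fall: 35 min endpoint for screening at 10 μM; continuous 45 min for dose response.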

17β-HSD10 [2] = target: T1, 17β-HSD10; experiment: Thermal shift analysis; type: binding; conditions: 20 μM compound, 1 mM NADH
Description: Solutions containing compound at two concentrations (25 μM and 100 μM) added to assay buffer (50 mM Hepes, 0.5 M NaCl, pH 8.2, SYPRO orange 20 X, ±1 mM NADH) were plated in triplicate (25 μl per well) in MicroAmp 96-well plates (Thermo Fisher: 4346907). The plates were then sealed with optical grade sealing film (Thermo Fisher: 4311971) and loaded into a ViiA 7 RT-PCR machine ((Thermo Fisher: 4453534) (ramp speed 0.015° C./sec, 25-95° C.)). Data was exported to GraphPad PRISM and Tm values were calculated using the Boltzmann sigmoidal curve fit equation.
The ΔTm for one compound from each series is presented in FIG. 9 with a representative derivative plot of ESC1002033 and ESC1002082 in FIG. 9a.

17β-HSD10 [3] = target: T1, 17β-HSD10; experiment: Mechanism of action against the substrates NADH and AcetoAcetyl CoA; type: biochemical
Description: To determine the kinetics for acetoacetyl-CoA and the effect of 17β-HSD10 concentration upon reaction rate, a matrix titration experiment was set up. Previously determined conditions were used with a fixed concentration of 700 μM NADH and a starting concentration of up to 200 μM acetoacetyl-CoA. Doubling dilutions of acetoacetyl-CoA were then coupled with doubling dilutions of 17β-HSD10, which started with a maximum concentration of 40 nM. Data collected from the experiment was analysed using a standard template, from which reaction progress curves were analysed to calculate initial velocities and obtain Km values using the Michaelis-Menten equation (XLFit, ID Business Solutions).
To determine the kinetics for NADH and the effect of 17β-HSD10 concentration upon reaction rate a matrix titration experiment was set up. Previously determined conditions (Aitken et al. 2017, supra) were used, 120 μM acetoacetate and a starting concentration of up to 1000 μM NADH. Doubling dilutions of NADH were then coupled with doubling dilutions of 17β-HSD10, which started with a maximum concentration of 40 nM. Data were analysed as described previously (Aitken et al. 2017, supra).
Two compounds, ESC1002033 and ESC1002082, representative of the two different clusters were investigated for their mechanism of action against the substrates, NADH and AcetoAcetyl CoA (AcAc). The ESC inhibitors were tested as 12-point 1 in 1.5 dilution series with a maximal concentration of 2.5 μM.

[4] = Mouse hepatocyte stability; type: in vitro ADME; parameters: k: unit not given here; conditions: for Heps Category: hepatocyte metabolism category, mouse; for Cl: clearance; for k: k=absorption rate constant (so in the source)
Description: Table 5: Initial mouse hepatocyte stability and plasma protein binding experiments were undertaken on some of the best exemplars from the representative series with AG18051 a previously published 17β-HSD10 inhibitor (C. R. Kissinger et al., J. Mol. Biol., 342 (2004), p. 943; Lim, Y.-A., Grimm, A., Giese, M. PLoS ONE (2011), 6, e28887.) Ref: shown for comparison. Where k=absorption rate constant Cl=clearance, T1/2=half-life, Heps=hepatocyte metabolism, PPB=plasma protein binding.

[5] = target: T2, 17β-HSD10 in HEK293 mts17β-HSD10 cells (Homo sapiens, UniProt Q99714); experiment: (-)-CHANA enzyme activity cell based assay; conditions: cellular 17β-HSD10, HEK 293 cells, (-)-CHANA probe
T2 construct: expressed in transfected cells; host or cells: HEK293
T2 sequence (Q99714 1-261): T1 sequence (Q99714 1-261)
Description: HEK293 mts17β-HSD10 cells were seeded at a density of 10,000 cells per well (100 μL, 96 well black plates) in phenol-red free media (10% FBS, 1 mM sodium pyruvate, 100 units penicillin, 0.1 mg/mL streptomycin and 2 mM L-glutamine). After 24 hours the media was removed from the cells and replaced with fresh media containing varying concentrations of compound (100 μM-0.098 μM). The fluorogenic probe (-)-CHANA was then added to each well to give a final assay concentration of 20 μM. Fluorescence was immediately measured using a FLUOstar Optima microplate reader (excitation=380 nm, emission=520 nm, orbital averaging=3 mm) and the initial reaction monitored for 3-4 hours. IC50 was calculated from the control-subtracted triplicates using non-linear regression (four parameters) of GraphPad Prism 5 software. Final IC50 and SEM value was obtained as a mean of at least 3 independent measurements.
REF: (-)-CHANA, a Fluorogenic Probe for Detecting Amyloid Binding Alcohol Dehydrogenase HSD10 Activity in Living Cells Kirsty E. A. Muirhead, Mary Froemming, Xiaoguang Li, Kamil Musilek, Stuart J. Conway, Dalibor Sames, and Frank J. Gunn-Moore ACS Chemical Biology 2010 5 (12), 1105-1114DOI: 10.1021/cb100199m) to monitor the oxidative activity of 17β-HSD10 in living cells. […]

[6] = test system: SH-SY5Y (neuroblastoma cells); conditions: cited from earlier work

Row | Structure (SMILES) | Mean ABAD pIC50 (17β-HSD10 [1]; Table 5) | EC50 (17β-HSD10 [1]) [µM] | Max. Effect (%) (17β-HSD10 [1]) | Hill Slope (17β-HSD10 [1]) | Max. Fit (17β-HSD10 [1]) | Min. Fit (17β-HSD10 [1]) | ΔTm at 20 µM (17β-HSD10 [2]) [°C] | mode of binding with respect to NADH (17β-HSD10 [3]; AcAc in excess at 800 μM) | mode of binding with respect to AcAc (17β-HSD10 [3]; excess of 100 μM NADH) | Heps Category [4] | Cl ([4]; mouse hepatocytes) [ml/minute/g liver] | k ([4]; mouse hepatocytes) | IC50 (17β-HSD10 [1]; Table 5, read-out: Mean ABAD pIC50 (converted)) [µM] | fold improvement in activity / potency (17β-HSD10 [1]; relative to the parent compound of the sentence) [fold] | EC50 [5] [µM] | half-life ([4]; mouse hepatocytes, half-life) [min] | T1/2 ([4]; mouse hepatocytes, half-life) [min] | protection from Aβ mediated cytotoxicity [6]
1 | CC(C)CN(C(=O)c1ccccc1F)c1cccc(N(C)Cc2cnc[nH]2)c1 [ESC1002033, 2-fluoro-N-[3-[1H-imidazol-5-ylmethyl(methyl)amino]phenyl]-N-isobutyl-benzamide] | 6.7 | 0.2 | 99 | 1 | 99 | −3 | 6.75 | non-competitively | competitively | Mod | 6.2 | 0.013 |  |  |  |  |  | 
2 | O=C(c1sccc1Cl)N1CCC[C@H]1c1ccccc1-c1cccc(O)c1 (single isomer, unassigned) [ESC1002755] |  | 0.02 | 95 | 1 | 93 | −2 |  |  |  | High | 105.8 | 0.22 | 0.0186 | 40 | 0.028 | 3.14 |  | 
3 | O=C(C(c1ccccc1)n1cnc2[nH]ncc2c1=S)N1CCCCCC1 (centres unmarked) [AG18051, reference compound] |  |  |  |  |  |  |  |  |  | High | 50.5 | 0.11 |  |  |  |  | 6.58 | protect cultured SH-SY5Y cells from Aβ mediated cytotoxicity
